# US6608086B2, “Dihydropyridines and new uses thereof” (Synaptic Pharmaceutical Corporation, priority 1993, dated 2003)
# pKi: −log10 of the molar value. Read-outs that look alike come from different tables or passages of the source.
# Key:
# [1] = molecular target: T1, α2B receptor (Homo sapiens, UniProt P18089); experiment: Competition binding, [3H]rauwolscine, human α2B receptor; settings: for pKi: PKi alpha-2 2b; for Ki: read-out: PKi alpha-2 2b (converted)
# T1 construct: host or cells: LM(tk-) cells, line L-NGC-α2B
# T1 sequence (P18089 1-450): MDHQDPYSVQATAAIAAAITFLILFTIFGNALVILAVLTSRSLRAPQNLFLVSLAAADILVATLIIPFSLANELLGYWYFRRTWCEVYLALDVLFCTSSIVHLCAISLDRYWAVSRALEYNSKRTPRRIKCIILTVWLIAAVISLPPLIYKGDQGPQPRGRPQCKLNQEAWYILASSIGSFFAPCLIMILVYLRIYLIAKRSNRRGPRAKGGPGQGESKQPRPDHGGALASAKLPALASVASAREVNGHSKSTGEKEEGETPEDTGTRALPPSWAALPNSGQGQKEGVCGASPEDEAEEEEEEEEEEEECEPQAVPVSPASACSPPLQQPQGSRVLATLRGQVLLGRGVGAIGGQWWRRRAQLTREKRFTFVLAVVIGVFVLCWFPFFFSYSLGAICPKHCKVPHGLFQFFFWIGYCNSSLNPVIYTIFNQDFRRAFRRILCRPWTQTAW
# Procedure, shortened: (§1)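 LM(tk−) lysates, stable α2A/α2B/α2C transfectants; 25 mM glycylglycine pH 7.6 (RT). [3H]rauwolscine 0.5 nM, equilibrium competition; NSB 10 μM phentolamine. GF/B filtration, cell harvester.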
# [2] = molecular target: T2, α2C receptor (Homo sapiens, UniProt P18825); experiment: Competition binding, [3H]rauwolscine, human α2C receptor; settings: for pKi: PKi alpha-2 2c; for Ki: read-out: PKi alpha-2 2c (converted)
# T2 construct: host or cells: LM(tk-) cells, line L-α2C
# T2 sequence (P18825 1-462): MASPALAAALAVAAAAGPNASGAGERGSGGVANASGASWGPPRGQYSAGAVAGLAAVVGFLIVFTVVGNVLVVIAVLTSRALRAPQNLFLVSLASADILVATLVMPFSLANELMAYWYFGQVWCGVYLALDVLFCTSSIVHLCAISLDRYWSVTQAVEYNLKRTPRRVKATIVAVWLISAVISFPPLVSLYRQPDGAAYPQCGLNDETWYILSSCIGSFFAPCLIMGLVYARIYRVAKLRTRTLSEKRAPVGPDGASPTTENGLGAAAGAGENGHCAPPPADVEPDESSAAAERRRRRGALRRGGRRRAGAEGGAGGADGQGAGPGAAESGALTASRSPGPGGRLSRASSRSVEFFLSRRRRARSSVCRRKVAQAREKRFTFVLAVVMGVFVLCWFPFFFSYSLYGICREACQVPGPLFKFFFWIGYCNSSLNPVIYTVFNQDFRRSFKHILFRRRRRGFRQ
# Procedure, shortened: as §1
# [3] = molecular target: T3, α1C Human Adrenergic Receptor (Homo sapiens, UniProt P35348); experiment: Radioligand binding, [3H]prazosin, cloned human α1C adrenergic receptor; settings: LM(tk-) cell membranes; for Ki: read-out: PKi alpha-1 1c (converted); for pKi: PKi alpha-1 1c
# T3 construct: The entire coding region of α1C (1401 bp); expressed in transfected cells
# T3 sequence (P35348 1-466): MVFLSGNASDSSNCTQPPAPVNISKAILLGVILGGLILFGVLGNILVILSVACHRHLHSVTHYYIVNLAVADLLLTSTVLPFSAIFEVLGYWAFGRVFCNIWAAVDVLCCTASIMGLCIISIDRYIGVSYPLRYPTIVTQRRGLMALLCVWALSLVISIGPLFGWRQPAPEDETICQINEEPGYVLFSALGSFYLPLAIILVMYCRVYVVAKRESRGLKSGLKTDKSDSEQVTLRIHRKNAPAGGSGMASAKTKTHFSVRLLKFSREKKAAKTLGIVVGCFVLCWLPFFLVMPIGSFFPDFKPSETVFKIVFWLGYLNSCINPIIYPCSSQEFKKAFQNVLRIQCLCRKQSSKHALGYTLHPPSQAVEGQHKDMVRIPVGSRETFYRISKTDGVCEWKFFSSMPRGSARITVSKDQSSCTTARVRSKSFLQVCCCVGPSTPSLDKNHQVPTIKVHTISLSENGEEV
# Procedure, shortened: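 Antagonist radioligand [3H]prazosin at 0.5 nM labels human α1C receptors in stably transfected LM(tk−) cell membranes over 20 min at 37° C. Phentolamine (10 μM) gives nonspecific binding.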
# [4] = [3H]rauwolscine, human receptor, LM(tk-) cell lysates, mean
# [5] = [3H]rauwolscine, human α2B receptor, LM(tk-) cells
# [6] = [3H]rauwolscine, human α2C receptor, LM(tk-) cells
compound,measurement,setting,value
"CCNC(=O)C1=C(CC)NC(CC)=C(C(=O)NCCCN2CCC(C(=O)OC)(c3ccccc3)CC2)C1c1ccc([N+](=O)[O-])cc1 (centres unmarked) [Example 180, 2,6-Diethyl-1,4-dihydro-5-(N-ethyl)carboxamido-3-{N-[3-(4-methoxycarbonyl-4-phenylpiperidin-1-yl)propyl]}carboxamido-4-(4-nitrophenyl)pyridine]",pKi,[1],5.44
same,melting point,,217 °C (dec.)
same,pKi,[2],5.24
same,Ki,"[3]; cloned human receptor, mean",3.63 nM
"CCNC(=O)C1=C(CC)NC(COCCN)=C(C(=O)NCCCN2CCC(C(=O)OCC)(c3ccccc3)CC2)C1c1ccc([N+](=O)[O-])cc1 (centres unmarked) [Example 192, 2-[(2-Aminoethoxy)methyl]-3-{N-[3-(4-ethoxycarbonyl-4-phenyl-piperidin-1-yl)propyl]}carboxamido-1,4-dihydro-6-ethyl-5-(N-ethyl)carboxamido-4-(4-nitrophenyl)pyridine]",Ki,[1]; [4],6170 nM
same,melting point,,112 to 114 °C
same,Ki,[2]; [4],1480 nM
same,Ki,"[3]; cloned human receptor, mean",3.09 nM
"CCOC(=O)C1(c2ccccc2)CCN(CCCNC(=O)C2=C(COCCN)NC(CC)=C(C(N)=O)C2c2ccc([N+](=O)[O-])cc2)CC1 (centres unmarked) [Example 193, 2-[(2-Aminoethoxy)methyl]-5-carboxamido-3-{N-[3-(4-ethoxycarbonyl-4-phenylpiperidin-1-yl)propyl]}carboxamido-1,4-dihydro-6-ethyl-4-(4-nitrophenyl)pyridine]",Ki,[1]; [4],2400 nM
same,melting point,,87 to 89 °C
same,Ki,[2]; [4],631 nM
same,Ki,"[3]; cloned human receptor, mean",1.58 nM
"CCOC(=O)C1(c2ccccc2)CCN(CCCNC(=O)C2=C(COCCN)NC(CC)=C(C(=O)NC)C2c2ccc([N+](=O)[O-])cc2)CC1 (centres unmarked) [Example 194, 2-[(2-Aminoethoxy)methyl]-3-{N-[3-(4-ethoxycarbonyl-4-phenylpiperidin-1-yl)propyl]}carboxamido-1,4-dihydro-6-ethyl-5-(N-methyl) carboxamido-4-(4-nitrophenyl) pyridine]",Ki,[1]; [4],5750 nM
same,melting point,,51 to 53 °C
same,Ki,[2]; [4],1070 nM
same,Ki,"[3]; cloned human receptor, mean",3.72 nM
"CCOC(=O)C1(c2ccccc2)CCN(CCCNC(=O)C2=C(COCCN)NC(CC)=C(C(=O)O)C2c2ccc([N+](=O)[O-])cc2)CC1 (centres unmarked) [Example 196, 2-[(2-Aminoethoxy)methyl]-3-{N-[3-(4-ethoxycarbonyl-4-phenylpiperidin-1-yl)propyl]}carboxamido-1,4-dihydro-6-ethyl-4-(4-nitrophenyl)pyridine-5-carboxylic Acid]",Ki,[1]; [4],4680 nM
same,melting point,,103 to 105 °C
same,Ki,[2]; [4],3090 nM
same,Ki,"[3]; cloned human receptor, mean",38.9 nM
CCC1=C(C(N)=O)C(c2ccc([N+](=O)[O-])cc2)C(C(=O)NCCCN2CCC(C(=O)OC)(c3ccccc3)CC2)=C(CC)N1 (centres unmarked) [Example 200],pKi,[1],5.97
same,melting point,,112 to 114 °C
same,pKi,[2],5.79
same,Ki,"[3]; cloned human receptor, mean",4.37 nM
"CC(=O)C1=C(C)NC(COCCN)=C(C(=O)NCCCN2CCC(c3ccccc3)(c3ccccc3)CC2)C1c1ccc2c(c1)OCO2 (centres unmarked) [Example 239, 5-Acetyl-2-((2-aminoethyl)oxy)methyl-1,4-dihydro-6-methyl-4-(3,4-methylenedioxy)phenyl-3-(N-(3-(4,4-dipheylpiperidin-1-yl)propyl))carboxamidopyridine]",pKi,[1]; [5],6.12
same,melting point,,80 °C (dec.)
same,pKi,[2]; [6],6.58
same,pKi,[3]; cloned human α1C receptor,8.69
"CCOC(=O)C1(c2ccccc2)CCN(CCCNC(=O)C2=C(COC)NC(CC)=C(C(=O)O)C2c2ccc([N+](=O)[O-])cc2)CC1 (centres unmarked) [Example 240, 3-(N-3-(4-Ethoxycarbonyl-4-phenylpiperidin-1-yl)propyl)carboxamido-6-ethyl-1,4-dihydro-2-(methyloxy)methyl-4-(4-nitro)phenylpyridine-5-carboxylic Acid]",pKi,[1],5.20
same,melting point,,116 to 126 °C
same,pKi,[2],4.93
same,Ki,[3]; cloned human α1C receptor,26.9 nM
"COC(=O)C1(c2ccccc2)CCN(CCCNC(=O)C2=C(COCCCN)NC(C)=C(C(C)=O)C2c2ccc([N+](=O)[O-])cc2)CC1 (centres unmarked) [Example 241, 5-Acetyl-2-((3-aminopropyl)oxy)methyl-1,4-dihydro-3-(N-(3-(4-methoxycarbonyl-4-phenylpiperidin-1-yl)propyl))carboxamido-6-methyl-4-(4-nitro)phenylpyridine]",pKi,[1],5.93
same,melting point,,70 °C (dec.)
same,pKi,[2],6.40
same,Ki,[3]; cloned human α1C receptor,4.37 nM
"CC(=O)C1=C(C)NC(COCCN)=C(C(=O)NCCCN2CCC(c3ccccc3)(c3ccccc3)CC2)C1c1ccc(F)cc1 (centres unmarked) [Example 242, 5-Acetyl-2-((2-aminoethyl)oxy)methyl-4-(4-fluoro)phenyl-1,4-dihydro-6-methyl-3-(N-(3-(4,4-diphenylpiperidin-1-yl)propyl))carboxamidopyridine]",pKi,[1]; [5],6.03
same,melting point,,75 °C (dec.)
same,pKi,[2]; [6],6.59
same,pKi,[3]; cloned human α1C receptor,8.40
"CCOC(=O)C1(c2ccccc2)CCN(CCCNC(=O)C2=C(COCCN)NC(C)=C(C(C)=O)C2c2ccc3c(c2)OCO3)CC1 (centres unmarked) [Example 244, 5-Acetyl-2-((2-aminoethyl)oxy)methyl-3-(N-(3-(4-ethoxycarbonyl-4-phenylpiperidin-1-yl)propyl)) carboxamido-1,4-dihydro-6-methyl-4-(3,4-methylenedioxy) phenylpyridine]",Ki,[1]; [5],2140 nM
same,melting point,,55 °C (dec.)
same,Ki,[2]; [6],97.7 nM
same,Ki,[3]; cloned human α1C receptor,3.47 nM
CCC1=C(C(=O)OCCO)C(c2ccc([N+](=O)[O-])cc2)C(C(=O)NCCCN2CCC(c3ccccc3)(c3ccccc3)CC2)=C(COC)N1 (centres unmarked) [Example 246],pKi,[1]; [5],6.51
same,melting point,,73 °C (dec.)
same,Ki,[2]; [6],2400 nM
same,pKi,[3]; cloned human α1C receptor,8.56
"CCC1=C(C(=O)NCCOC)C(c2ccc([N+](=O)[O-])cc2)C(C(=O)NCCCN2CCC(c3ccccc3)(c3ccccc3)CC2)=C(COC)N1 (centres unmarked) [Example 247, 6-Ethyl-1,4-dihydro-5-N-((2-methoxy)ethyl)carboxamido-2-(methyloxy)methyl-4-(4-nitro)phenyl-3-(N-(3-(4,4-diphenylpiperidin-1-yl)propyl)) carboxamidopyridine]",pKi,[1]; [5],6.32
same,melting point,,70 °C (dec.)
same,Ki,[2]; [6],302 nM
same,pKi,[3]; cloned human α1C receptor,7.61
"CCC1=C(C(=O)NN2CCOCC2)C(c2ccc([N+](=O)[O-])cc2)C(C(=O)NCCCN2CCC(c3ccccc3)(c3ccccc3)CC2)=C(COC)N1 (centres unmarked) [Example 248, 6-Ethyl-1,4-dihydro-2-((methyl)oxy)methyl-5-N-(morpholin-4yl)carboxamido-4-(4-nitro)phenyl-3-(N-(3-(4,4-diphenylpiperidin-1-yl)propyl))carboxamidopyridine]",Ki,[1]; [5],1150 nM
same,melting point,,112 °C (dec.)
same,Ki,[2]; [6],525 nM
same,Ki,[3]; cloned human α1C receptor,174 nM
